Experimental data reported in BindingDB's records for doi:10.1007/bf00168685 (Centre De Pharmacologie-Endocrinologie (Montpellier, France), 1992).

Molecular target: T1, 5-hydroxytryptamine receptor 3A (Rattus norvegicus, UniProt P35563)
T1 sequence (P35563 whole entry): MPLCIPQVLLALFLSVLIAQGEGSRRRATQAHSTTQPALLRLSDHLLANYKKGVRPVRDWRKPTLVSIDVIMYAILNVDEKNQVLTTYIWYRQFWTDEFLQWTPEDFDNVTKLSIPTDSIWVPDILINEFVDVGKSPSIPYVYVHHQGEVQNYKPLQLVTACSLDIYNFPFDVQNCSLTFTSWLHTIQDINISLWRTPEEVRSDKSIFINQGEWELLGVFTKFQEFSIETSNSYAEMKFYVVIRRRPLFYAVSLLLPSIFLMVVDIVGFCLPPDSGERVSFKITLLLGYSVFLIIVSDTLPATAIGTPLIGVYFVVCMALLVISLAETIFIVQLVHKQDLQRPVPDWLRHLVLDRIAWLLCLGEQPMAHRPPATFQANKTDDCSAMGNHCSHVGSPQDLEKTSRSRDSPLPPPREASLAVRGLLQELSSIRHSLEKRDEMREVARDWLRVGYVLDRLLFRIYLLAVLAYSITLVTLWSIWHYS

Ki: 2.8 nM
SMILES: CN1C2CCC1CC(OC(=O)c1c[nH]c3ccccc13)C2 (stereo unspecified)
